Each structure is given as a SMILES string. Read-outs that look alike come from different tables or passages of the source. *1 amine or outer side, *2 acyl side, *3 side chain or, on linkers, in order; H or OH if unused. Where a SMILES comes first, the peptide text is derived from it. Side-chain parts run from the residue outwards. [ ]: non-standard residue; d: D form. The star is where a group is joined. Decanoyl(10-(4-HOOC-PhO)) = O=C(O)c1ccc(OCCCCCCCCCC(=O)*)cc1; αMePhe(2-F) = C[C@](N)(Cc1ccccc1F)C(=O)O; γGlu = O=C(O)[C@H](CCC(=O)[*:2])N[*:1]; C14 diacid = O=C(O)CCCCCCCCCCCCC(=O)*; αMeY = C[C@](N)(Cc1ccc(O)cc1)C(=O)O; αMeF = C[C@](N)(Cc1ccccc1)C(=O)O; 4Pal = N[C@@H](Cc1ccncc1)C(=O)O; αMeL = CC(C)C[C@](C)(N)C(=O)O; Lauroyl = CCCCCCCCCCCC(=O)*; Orn = NCCC[C@H](N)C(=O)O; AEEA = NCCOCCOCC(=O)O; Aib = CC(C)(N)C(=O)O

Experimental findings from patent US20230265151A1, “GIP/GLP1 CO-AGONIST COMPOUNDS” (priority 2020, published 2023) are described below.

What all share (format): cell-based
One test deals with T1, hGIPR (Homo sapiens, UniProt P48546).
T1 construct: expressed in transfected cells
T1 sequence (P48546 22-466): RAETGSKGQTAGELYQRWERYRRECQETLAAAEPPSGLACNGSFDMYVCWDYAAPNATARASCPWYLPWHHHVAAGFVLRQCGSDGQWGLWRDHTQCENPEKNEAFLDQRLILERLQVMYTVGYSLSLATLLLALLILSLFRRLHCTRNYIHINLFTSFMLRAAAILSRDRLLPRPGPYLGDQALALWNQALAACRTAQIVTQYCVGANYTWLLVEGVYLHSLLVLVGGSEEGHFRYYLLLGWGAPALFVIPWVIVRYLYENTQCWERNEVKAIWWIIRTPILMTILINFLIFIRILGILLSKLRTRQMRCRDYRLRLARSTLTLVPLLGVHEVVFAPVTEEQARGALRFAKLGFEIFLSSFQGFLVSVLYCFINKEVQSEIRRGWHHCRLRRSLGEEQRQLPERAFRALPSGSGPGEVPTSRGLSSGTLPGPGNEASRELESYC
The experiment in a line: Functional cAMP formation (HTRF) in HEK-293 clonal cells expressing hGIPR, 0.1% bovine casein, without or with 1.0% human serum albumin. As to conditions: for Emax: percent of maximal response to GIP(1-42)NH2; for EC50: cAMP, 0.1% bovine casein (no human serum albumin), geometric mean. In short, it runs like this:
(§1)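 Cells were stimulated with peptide for 30 min at 37° C, then lysed in buffer carrying cAMP-d2 and anti-cAMP Eu3+-cryptate for a competitive HTRF read after at least 60 min at room temperature. The 665/620 nm ratio was converted to nM cAMP against a standard curve.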

A further test deals with T2, hGCGR (Homo sapiens, UniProt P47871).
T2 construct: expressed in transfected cells
T2 sequence (P47871 26-477): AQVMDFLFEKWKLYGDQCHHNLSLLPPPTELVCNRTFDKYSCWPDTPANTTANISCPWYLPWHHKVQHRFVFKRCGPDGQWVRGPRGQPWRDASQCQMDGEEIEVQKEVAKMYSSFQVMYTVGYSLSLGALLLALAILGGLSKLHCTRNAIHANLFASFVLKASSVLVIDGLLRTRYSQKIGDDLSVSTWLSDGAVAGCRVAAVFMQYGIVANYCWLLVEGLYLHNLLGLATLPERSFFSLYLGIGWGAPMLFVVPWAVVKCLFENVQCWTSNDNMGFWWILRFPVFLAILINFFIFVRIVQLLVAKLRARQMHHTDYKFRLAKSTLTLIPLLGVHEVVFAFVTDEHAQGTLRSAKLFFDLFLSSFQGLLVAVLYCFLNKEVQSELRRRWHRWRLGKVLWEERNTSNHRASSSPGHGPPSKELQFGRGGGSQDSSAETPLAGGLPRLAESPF
The experiment in a line: Functional cAMP formation (HTRF) in HEK-293 clonal cells expressing hGCGR, 0.1% bovine casein, without or with 1.0% human serum albumin. The note with it: cAMP, 37° C. In short, it runs like this: as §1

In the next test the target is hGLP-1R (Homo sapiens, UniProt P43220). The experiment in a line: Functional cAMP formation (HTRF) in HEK-293 clonal cells expressing hGLP-1R, 0.1% bovine casein, without or with 1.0% human serum albumin. Details: expressed in transfected cells. As to conditions: for Emax: percent of maximal response to GLP-1(7-36)NH2; for EC50: cAMP. In short, it runs like this:
as §1

The mark [1] stands for this setting: HEK293, cAMP, 37° C., 0.1% bovine casein and 1.0% human serum albumin, read-out: hGIPR Emax, % ± SEM.
Setting [2] is: HEK293, cAMP, 37° C., 0.1% bovine casein, arithmetic mean, read-out: hGIPR Emax, % ± SEM.
Where [3] appears, read: 37° C., read-out: hGIPR EC50, nM (SEM, n).
[4] abbreviates: 0.1% bovine casein (no human serum albumin), geometric mean, read-out: hGCGR EC50, nM (SEM, n).
Setting [5] is: 0.1% bovine casein and 1.0% human serum albumin, geometric mean (SEM, n), read-out: hGCGR EC50, nM (SEM, n).
Where [6] appears, read: HEK293, cAMP, 37° C., 0.1% bovine casein and 1.0% human serum albumin, read-out: hGLP-1R Emax, % ± SEM.
Where [7] appears, read: HEK293, cAMP, 37° C., 0.1% bovine casein, arithmetic mean, read-out: hGLP-1R Emax, % ± SEM.
[8] abbreviates: 37° C., 0.1% bovine casein (no human serum albumin), geometric mean, read-out: hGLP-1R EC50, nM (SEM, n).

Chain of hGLP-1R (P43220 24-463): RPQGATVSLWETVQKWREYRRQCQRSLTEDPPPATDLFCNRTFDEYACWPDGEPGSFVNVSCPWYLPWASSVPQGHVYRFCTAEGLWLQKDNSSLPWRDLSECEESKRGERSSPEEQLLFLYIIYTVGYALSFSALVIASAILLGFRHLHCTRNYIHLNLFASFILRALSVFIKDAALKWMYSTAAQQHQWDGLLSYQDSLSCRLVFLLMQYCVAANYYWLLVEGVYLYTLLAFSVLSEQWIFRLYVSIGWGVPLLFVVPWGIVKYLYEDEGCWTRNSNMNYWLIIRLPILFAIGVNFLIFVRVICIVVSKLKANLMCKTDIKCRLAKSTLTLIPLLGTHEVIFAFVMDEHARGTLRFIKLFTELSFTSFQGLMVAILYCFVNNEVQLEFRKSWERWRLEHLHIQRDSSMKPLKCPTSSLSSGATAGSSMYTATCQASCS

As to `CC[C@H](C)[C@H](NC(=O)[C@H](CCCN)NC(=O)[C@H](CC(=O)O)NC(=O)[C@H](CC(C)C)NC(=O)[C@](C)(CC(C)C)NC(=O)[C@@H](NC(=O)C(C)(C)NC(=O)[C@H](Cc1ccc(O)cc1)NC(=O)[C@H](CC(=O)O)NC(=O)[C@H](CO)NC(=O)[C@@H](NC(=O)[C@](C)(Cc1ccccc1F)NC(=O)[C@@H](NC(=O)CNC(=O)[C@H](CCC(=O)O)NC(=O)C(C)(C)NC(=O)[C@@H](N)Cc1ccc(O)cc1)[C@@H](C)O)[C@@H](C)O)[C@@H](C)CC)C(=O)N[C@@H](C)C(=O)N[C@@H](CCC(N)=O)C(=O)NC(C)(C)C(=O)N[C@@H](CCCCNC(=O)COCCOCCNC(=O)CC[C@H](NC(=O)CCCCCCCCCOc1ccc(C(=O)O)cc1)C(=O)O)C(=O)N[C@@H](Cc1ccccc1)C(=O)N[C@H](C(=O)N[C@H](CCC(=O)O)C(=O)N[C@@](C)(Cc1ccc(O)cc1)C(=O)N[C@@H](CC(C)C)C(=O)N[C@H](C(=O)N[C@@H](CCCCNC(=O)COCCOCCNC(=O)CC[C@H](NC(=O)CCCCCCCCCOc1ccc(C(=O)O)cc1)C(=O)O)C(=O)NCC(=O)NCC(=O)N1CCC[C@H]1C(=O)N[C@@H](CO)C(=O)N[C@@H](CO)C(=O)NCC(=O)N[C@@H](C)C(=O)N1CCC[C@H]1C(=O)N1CCC[C@H]1C(=O)N1CCC[C@H]1C(=O)N[C@@H](CO)C(N)=O)[C@@H](C)CC)[C@@H](C)CC` [Example 376] (H-Y[Aib]EGT[αMePhe(2-F)]TSDY[Aib]I[αMeL]LD[Orn]IAQ[Aib]K([AEEA-γGlu-Decanoyl(10-(4-HOOC-PhO))])FI[dE][αMeY]LIK([AEEA-γGlu-Decanoyl(10-(4-HOOC-PhO))])GGPSSGAPPPS-NH2), the Emax at hGIPR (HEK293, read-out: hGIPR Emax, % ± SEM, cAMP, 37° C., 0.1% bovine casein and 1.0% human serum albumin) came out at 88.3%; on hGLP-1R (HEK293, read-out: hGLP-1R Emax, % ± SEM, cAMP, 37° C., 0.1% bovine casein and 1.0% human serum albumin), 121%. Also, the concentration for a half-maximal effect (EC50) is 0.0281 nM on hGIPR (hGIPR EC50, nM (SEM, n), 37° C.); above 9950 nM at hGCGR (hGCGR EC50, nM (SEM, n), 0.1% bovine casein (no human serum albumin), geometric mean); above 9950 nM on hGCGR (hGCGR EC50, nM (SEM, n), 0.1% bovine casein and 1.0% human serum albumin, geometric mean (SEM, n)); 0.539 nM at hGLP-1R (hGLP-1R EC50, nM (SEM, n), 37° C., 0.1% bovine casein (no human serum albumin), geometric mean).
As for `CCCCCCCCCCCC(=O)N[C@@H](CCC(=O)NCCOCCOCC(=O)NCCOCCOCC(=O)NCCOCCOCC(=O)NCCCC[C@H](NC(=O)[C@H](CCCN)NC(=O)[C@H](CC(=O)O)NC(=O)[C@H](CC(C)C)NC(=O)[C@](C)(CC(C)C)NC(=O)[C@@H](NC(=O)C(C)(C)NC(=O)[C@H](Cc1ccncc1)NC(=O)[C@H](CC(=O)O)NC(=O)[C@H](CO)NC(=O)[C@@H](NC(=O)[C@](C)(Cc1ccccc1F)NC(=O)[C@@H](NC(=O)CNC(=O)[C@H](CCC(=O)O)NC(=O)C(C)(C)NC(=O)[C@@H](N)Cc1ccc(O)cc1)[C@@H](C)O)[C@@H](C)O)[C@@H](C)CC)C(=O)N[C@@H](C)C(=O)N[C@@H](CCC(N)=O)C(=O)NC(C)(C)C(=O)N[C@@H](CCC(=O)O)C(=O)N[C@@](C)(Cc1ccccc1)C(=O)N[C@H](C(=O)N[C@H](CCC(=O)O)C(=O)N[C@@](C)(Cc1ccc(O)cc1)C(=O)N[C@@H](CC(C)C)C(=O)N[C@H](C(=O)N[C@@H](CCCCNC(=O)COCCOCCNC(=O)COCCOCCNC(=O)COCCOCCNC(=O)CC[C@H](NC(=O)CCCCCCCCCCC)C(=O)O)C(=O)NCC(=O)NCC(=O)N1CCC[C@H]1C(=O)N[C@@H](CO)C(=O)N[C@@H](CO)C(=O)NCC(=O)N[C@@H](C)C(=O)N1CCC[C@H]1C(=O)N1CCC[C@H]1C(=O)N1CCC[C@H]1C(=O)N[C@@H](CO)C(N)=O)[C@@H](C)CC)[C@@H](C)CC)C(=O)O` [Example 438] (H-Y[Aib]EGT[αMePhe(2-F)]TSD[4Pal][Aib]I[αMeL]LD[Orn]K([AEEA-AEEA-AEEA-γGlu-Lauroyl])AQ[Aib]E[αMeF]I[dE][αMeY]LIK([AEEA-AEEA-AEEA-γGlu-Lauroyl])GGPSSGAPPPS-NH2), the maximal response (Emax) at hGIPR (setting [1]) was found to be 90.8%; on hGIPR (setting [2]), 98.9%; at hGLP-1R (setting [6]), 88.7%; at hGLP-1R (setting [7]), 88.5%. Further, the EC50 was 0.0157 nM on hGIPR (setting [3]); above 9950 nM on hGCGR (setting [4]); above 9950 nM at hGCGR (setting [5]); 0.471 nM on hGLP-1R (setting [8]); 28 nM at hGLP-1R (37° C., 0.1% bovine casein and 1.0% human serum albumin, geometric mean (SEM, n), read-out: hGLP-1R EC50, nM (SEM, n)).
Consider `CC[C@H](C)[C@H](NC(=O)[C@H](CC(C)C)NC(=O)[C@](C)(Cc1ccc(O)cc1)NC(=O)[C@@H](CCC(=O)O)NC(=O)[C@@H](NC(=O)[C@H](Cc1ccccc1)NC(=O)[C@H](CCCN)NC(=O)C(C)(C)NC(=O)[C@H](CCC(N)=O)NC(=O)[C@H](C)NC(=O)[C@H](CCCCNC(=O)COCCOCCNC(=O)COCCOCCNC(=O)CC[C@H](NC(=O)CCCCCCCCCCCCC(=O)O)C(=O)O)NC(=O)[C@H](CCCN)NC(=O)[C@H](CC(=O)O)NC(=O)[C@H](CC(C)C)NC(=O)[C@](C)(CC(C)C)NC(=O)[C@@H](NC(=O)C(C)(C)NC(=O)[C@H](Cc1ccc(O)cc1)NC(=O)[C@H](CC(=O)O)NC(=O)[C@H](CO)NC(=O)[C@@H](NC(=O)[C@](C)(Cc1ccccc1F)NC(=O)[C@@H](NC(=O)CNC(=O)[C@H](CCC(=O)O)NC(=O)C(C)(C)NC(=O)[C@@H](N)Cc1ccc(O)cc1)[C@@H](C)O)[C@@H](C)O)[C@@H](C)CC)[C@@H](C)CC)C(=O)N[C@@H](CCCCNC(=O)COCCOCCNC(=O)COCCOCCNC(=O)CC[C@H](NC(=O)CCCCCCCCCCCCC(=O)O)C(=O)O)C(=O)NCC(=O)NCC(=O)N1CCC[C@H]1C(=O)N[C@@H](CO)C(=O)N[C@@H](CO)C(=O)NCC(=O)N[C@@H](C)C(=O)N1CCC[C@H]1C(=O)N1CCC[C@H]1C(=O)N1CCC[C@H]1C(=O)N[C@@H](CO)C(N)=O` [Example 349] (H-Y[Aib]EGT[αMePhe(2-F)]TSDY[Aib]I[αMeL]LD[Orn]K([AEEA-AEEA-γGlu-C14 diacid])AQ[Aib][Orn]FI[dE][αMeY]LIK([AEEA-AEEA-γGlu-C14 diacid])GGPSSGAPPPS-NH2; N-terminus assumed), for which the maximal response (Emax) on hGIPR (setting [1]) was 79.3%; at hGIPR (setting [2]), 95.9%; at hGLP-1R (setting [6]) it was 94.3%; at hGLP-1R (setting [7]), 99%. The EC50 is 0.015 nM at hGIPR (setting [3]), above 9950 nM on hGCGR (setting [4]), above 9950 nM on hGCGR (setting [5]) and 0.334 nM on hGLP-1R (setting [8]).
